Consider 2 molecules from ChEMBL document CHEMBL1136541, “D-Phe-Pro-Arg type thrombin inhibitors: unexpected selectivity by modification of the P1 moiety” (Bioorg Med Chem Lett, 2003).

SMILES strings stand for the structures.

The experiment addresses T1, Serine protease 1 (Bos taurus, UniProt P00760).
T1 sequence (P00760 whole entry): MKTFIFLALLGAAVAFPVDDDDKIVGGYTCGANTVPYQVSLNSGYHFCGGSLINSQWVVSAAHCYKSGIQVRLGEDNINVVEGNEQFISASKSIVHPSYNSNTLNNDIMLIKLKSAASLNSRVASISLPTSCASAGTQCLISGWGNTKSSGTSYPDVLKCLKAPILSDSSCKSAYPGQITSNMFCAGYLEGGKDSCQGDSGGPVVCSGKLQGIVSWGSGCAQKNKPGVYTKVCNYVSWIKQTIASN
Kind of experiment: In vitro inhibitory activity against trypsin.

Turning to `Cn1c(CNC(=O)[C@@H]2C=CCN2C(=O)[C@@H](CC2CCCCC2)NCC(=O)O)ccc1C(=N)N`, the half-inhibitory concentration (IC50) came to 16 nM.

For `Cn1cc(CNC(=O)[C@@H]2C=CCN2C(=O)[C@@H](CC2CCCCC2)NCC(=O)O)cc1C(=N)N`, the IC50 was found to be 306 nM.

What is called IC50 is the midpoint of a concentration-inhibition curve. A low value points to greater potency in that assay.
